Data taken from publication PMC10660337, “Mutate and Conjugate: A Method to Enable Rapid In-Cell Target Validation” (ACS Chemical Biology, 2023).
Entries after “also recorded” stand apart in the source; their conditions may differ.

Key:
[1] = tested on: T1, BRD4(1)^L94C transiently expressed in HEK293T cells; test: OXFBD04 (3) competition assay in cells; assay type: cell-based, human; conditions: OXFBD04 30 min preincubation, then probe 10 µM for 1 h
T1 construct: the L94C mutation in the first bromodomain of BRD4 [BRD4(1)]; StrepII; expressed in transfected cells; host or cells: HEK293T
Protocol: Compound engagement with BRD4(1)^L94C was further validated by using an immunoprecipitation (IP) assay (Figure S22). Here, transfected HEK293T cells expressing StrepII-tagged BRD4(1)^L94C or StrepII-tagged BRD4(1)^WT were incubated with compound 42 before being lysed. The StrepII-tagged bromodomains were then pulled down using anti-StrepII antibodies, and the samples were separated by SDS-PAGE for analysis. […]
(§1) reaction mix was taken and 8 µL of Lamelli buffer added, and the samples denatured by heating at 95 °C for 10 min. Samples were separated by gel electrophoresis on NuPAGE™ 4–12%, Bis-Tris precast polyacrylamide gels (Thermofisher). Following electrophoresis, gels were stained for 15 min with InstantBlueTM Coomasie® stain (Abcam), destained, and imaged using Bio-rad molecular imager.
(§2) Bio-rad Image Lab 6.1 was used to process the data.
(§3) In-cell target engagement
In-cell labeling by clickable probes […]
(§4) Gels were imaged for fluorescence using Bio-rad molecular imager and then stained for 15 min with InstantBlueTM Coomasie® stain (Abcam), destained, and imaged using Bio-rad molecular imager. […]
Transfected HEK293T cells at ~90% confluency were incubated for 30 min with a DMSO control or varying concentrations of OXFBD04 diluted in Opti-MEM media. […] Cells were then harvested, processed, and analysed using the previously described protocol above. […]

[2] = tested on: T1, BRD4(1)^L94C transiently expressed in HEK293T cells; test: In-cell labeling by clickable probes, in-gel fluorescence; assay type: cell-based, human
Protocol: (§5) To evaluate proteome-wide selectivity of the clickable probes, HEK293T cells transiently expressing BRD4(1)^L94C or BRD4(1)^WT were incubated with 10 μM of probes 28–30 and 42 for 1 h before the cells were lysed and the CuAAC reaction with TAMRA-PEG3-azide was conducted (Figure 7A). […]
as §1, §2, §3
(§6) In-cell labeling by clickable probes
(§7) Transfected HEK293T cells at ~90% confluency were incubated for 1 h with a DMSO control (0.5% DMSO final concentration) or a click probe (10 µM, 0.5% DMSO final concentration) diluted in Opti- […]
Cells were then harvested and lysed using the previously described protocol above. The resulting cell lysates were diluted to 2 mg/mL using the previously described protocol above.
Cell lysates (50 µL) were then incubated with TAMRA-PEG3-Azide (200 µM), TCEP·HCl (2 mM), TBTA (200 µM), and CuSO4 (2 mM), for 1 h at rt in the dark. Samples were then prepared and separated by gel electrophoresis using the previously described protocol above.
Gels were imaged for fluorescence using Bio-rad molecular imager and then stained for 15 min with InstantBlueTM Coomasie® stain (Abcam), destained, and imaged using Bio-rad molecular imager.
Typically, the very bottom of the gel was removed prior to imaging due to residual, unreacted, TAMRA-PEG3-Azide, which would cause oversaturation and poor image quality. […]
(§8) MEM media. Cells were then harvested and lysed using the previously described protocol above. […]

BRD4(1)^L94C = target: T2, BRD4(1)^L94C (Homo sapiens, UniProt O60885, L94C); test: Fluorescent labeling of purified protein (CuAAC with TAMRA-PEG3-azide, in-gel fluorescence); assay type: binding; conditions: 50 μM probe, 10 μM protein, 4 h, 37 °C, then CuAAC 1 h
T2 construct: Characterization of His6-BRD4(1)L94C; made in house; host or cells: E. coli BL21 (DE3)
Protocol: When 28, 29, 30, and 42 were incubated with either purified BRD4(1)^L94C or BRD4(1)^WT and subjected to a copper(I)-catalyzed alkyne–azide click reaction (CuAAC) reaction with the fluorescent TAMRA-PEG3-azide dye, all clickable probes labeled the mutant protein and could be visualized using fluorescence imaging of a gel (Figure 6).
Figure 6 Clickable probes 28, 29, 30, and 42 covalently label BRD4(1)^L94C and undergo a subsequent CuAAC reaction with TAMRA-PEG3 azide to fluorescently label the protein, as shown by in-gel fluorescence imaging. Compounds 28, 29, 30, 41, and 42 (50 μM) were incubated with purified BRD4(1)^L94C or BRD4(1)^WT (10 μM) for 4 h at 37 °C, followed by CuAAC reaction with TAMRA-PEG3 azide for 1 h and separation of components by SDS-PAGE. For all compounds other than 30, only labeling of BRD4(1)^L94C was observed. […]
Fluorescent labeling of purified proteins
Assays were performed in 1.5 mL Eppendorf tubes at 37 °C, and gently shaken, unless otherwise stated.
The desired click probe (50 µM) was incubated with protein (10 µM) in protein LCMS buffer for 4 h, after which TAMRA-PEG3-Azide (200 µM), TCEP·HCl (1 mM), TBTA (100 µM), and CuSO4 (1 mM) were added and incubated for a further 1 h at room temperature in the dark. A 25 µL sample of the […]
as §1
Bio-rad Image Lab 6.1 was used to process the data. […]
InstantBlueTM Coomasie® stain (Abcam), destained, and imaged using Bio-rad molecular imager. […]
as §8

[3] = tested on: endogenous proteins of HEK293T cells; test: In-cell proteome-wide selectivity of clickable probes; assay type: cell-based, human; conditions: 10 μM probe, 1 h, live HEK293T cells expressing BRD4(1)^L94C or BRD4(1)^WT
Protocol: as §5, §1, §2, §3, §6, §7
Cells were then harvested and lysed using the previously described protocol above. The resulting cell lysates were diluted to 2 mg/mL using the previously described protocol above. […]
as §4

| Labeling of purified BRD4(1)^L94C, in-gel fluorescence (BRD4(1)^L94C) | SMILES | BRD4(1)^L94C labeling by probe with increasing concentration of OXFBD04 (3) [1] | In-cell BRD4(1)^L94C engagement (fluorescent band ∼49 kDa) ([2]; 10 μM probe, 1 h) | Proteome-wide selectivity / off-target binding to endogenous proteins [3] | Dose dependence of in-cell BRD4(1)^L94C labeling ([2]; 1 to 10 μM) | Time dependence of in-cell BRD4(1)^L94C labeling ([2]; time course 0.5–4 h) |
| --- | --- | --- | --- | --- | --- | --- |
| high levels | C#CCOc1ccc(-c2c(C)noc2NC(=O)C=C)cc1 [Compound 30] | concomitant reduction | highest level of BRD4(1)^L94C engagement | low cellular selectivity | – | – |
| high levels | C#CCOc1cc(NC(=O)C=C)ccc1N1CCCC1=O [Compound 42] | decreased levels | – | exquisite proteome-wide selectivity; also recorded: almost complete selectivity | dose dependent | time-dependent |
